Measured values from patent US20080027098A1, “Derivatives of alpha-phenylthiocarboxylic and alpha-phenyloxy-carboxylic acids useful for the treatment of diseases responding to PPARalpha activation” (SIGMA-TAU INDUSTRIE FARMACEUTICHE RIUNITE S.p.A., priority 2002, published 2008).
Marks after values point to notes of the source that are not given here.

Legend:
[1] = biological target: T1, Gal4DBD/PPARαLBD (Homo sapiens, UniProt Q07869); experiment: Transient transfection of COS-7 cells, Gal4DBD/PPARαLBD transactivation, CAT reporter (II method); assay type: cell-based; details: for activation at 2 µM / activation at 20 µM / activation at 100 µM: read-out: percentage activation of the CAT reporter gene compared to reference compound WY-14.643 2 μM taken as 100%
T1 construct: expressed in transfected cells; host or cells: COS-7 (monkey kidney fibroblasts)
T1 sequence (Q07869 239-466 limits assumed): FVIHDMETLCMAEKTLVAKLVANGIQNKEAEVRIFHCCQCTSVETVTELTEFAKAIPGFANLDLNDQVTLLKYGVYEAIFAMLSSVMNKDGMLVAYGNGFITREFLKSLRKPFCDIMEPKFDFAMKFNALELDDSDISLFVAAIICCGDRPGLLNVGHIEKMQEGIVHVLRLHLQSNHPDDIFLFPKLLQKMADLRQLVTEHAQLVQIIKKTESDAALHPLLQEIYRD
Source text: Transient Transfection of Eukaryotic Cells to Evaluate the Agonist Activity of PPARα Ligands (II Method)
An alternative transactivation system, which differs mainly in the way the receptor is positioned onto the DNA, and depending on how the event of ligand binding is translated into transcriptional activation, was used.
In this model eukaryotic cells were transiently transfected with an expression vector encoding a fusion protein between the DNA binding domain (DBD) of the yeast Gal4 transcription factor and the ligand binding domain (LBD) of the PPARα (Gal4DBD/PPARαLBD). The reporter vector containing 5 copies of the high affinity binding site for Gal4 (named UAS, upstream activating sequence) upstream of a strong viral promoter linked to the reporter gene chloramphenicol acetyltransferase (CAT), was co-transfected. This model offered some advantages, the most important of which was the absence of interference by endogenous receptors.
Besides expression and reporter vectors, cells were transfected with a control vector pCH110 that encodes the β-galactosidase enzyme to correct for differences in transfection efficiency.
A monkey kidney fibroblast cell line (COS-7) was used. Cells were co-transfected with the plasmid carrying the gene-reporter, the expression plasmid encoding the fusion protein Gal4DBD/PPARαLBD, and the control vector pCH110. Cells were then treated with increasing concentrations of test compounds and the CAT activity was measured. Untreated cells were used as control.
Monkey kidney fibroblasts (COS-7) were routinely grown in DMEM (Dulbecco's modified Eagle's medium) supplemented with 3.7 g/l sodium bicarbonate, 4 mM L-glutamine, 4.5 g/l glucose, 1 mM sodium piruvate and 10% v/v foetal bovine serum, in the presence of streptomycin 100 μg/ml and penicillin 100 U/ml.
COS-7 cells were transiently transfected by using the multi-component lipid-based FuGENE6 Transfection Reagent that complexes with and transports DNA into the cells during transfection. Cells were seeded at 1.2×10^5 cells/well, in 12-well plates, and cultured overnight at 37° C. in a 5% v/v carbon dioxide atmosphere. Two hours before transfection the culture medium was replaced by fresh serum-free medium and then transfection was performed with FuGENE6 Transfection Reagent according to the instructions of the manufacturer. Briefly, the transfection mixture containing (for each well) 0.8 μg of the expression vector, 1.6 μg of the reporter vector, 0.8 μg of the control vector and 9 μl of FuGENE6 Transfection Reagent was added directly to the cells in the presence of serum-free medium. After 5 hours the transfection medium was replaced by 1 ml of the complete culture medium with or without the test molecules at 3 different concentrations (2, 20 and 100 μM). 2 μM Wy-14,643, a known PPARα ligand, was used as positive control.
After 48 h, the cells were washed twice with 1 ml phosphate buffer (PBS) and then harvested by scraping them in TEN buffer (Tris [hydroxymethyl] aminomethane 10 mM pH 8, ethylenediamine tetraacetic acid 1 mM, pH 8, sodium chloride 0.1 M). Following centrifugation at room temperature, for 3 min at 1000 revs per minute (rpm), cells were resuspended with 60 μl of Lysis buffer (0.25M Tris-HCl, pH 8) and lysed by three rapid freeze/thaw cycles (three 5-minute cycles). Cell debris was then removed by centrifugating at 4° C., for 15 min at 15.000 revs per minute (rpm),. Glycerol (final 10% v/v) and β-mercaptoethanol (final 5 mM) were then added (final volume 75 μl) and the cell extracts were stored at −80° C. until assayed.
The CAT activity assay was performed as follows: 20 μl of cell lysate (pre-warmed at 65° C. for 10 min to deactivate internal deacetylase enzymatic activity) were added to 10 μl of 3.5 mg/ml n-butirryl-CoA, 5 μl ([…]) of [14C]-chloramphenicol and 65 μl of distilled H20 and incubated 2 h at 37° C. Reaction was blocked by adding 200 μl of the solution xylene/2,6,10,14 tetramethyl-pentadecane (in a 1:2 v/v mixture). […]

[2] = test system: db/db mice; experiment: Increase in HDL-cholesterol levels in db/db mice; assay type: in vivo; details: for Increase in HDL-cholesterol levels (%): further experiment, oral twice daily 14 days, dose equimolar to 25 mg/kg of ST2195, 8 hours after last treatment
Protocol: Increase in HDL-Cholesterol Levels in db/db Mice
In this experiment db/db mice were used in which PPARα expression is above normal (Memon et al., Endocrinology 2000, 4021-4031) and HDL-cholesterol levels are substantially elevated (Silver et al., J Biol Chem 1999, 274: 4140-4146).
The C57BL[KsJ db/db mice were acclimatised for one week in standard conditions (22±2° C.; 55±15% humidity; 15-20 air changes/hour; 12 hours light/darkness cycle with light from 7.00 a.m. to 7 p.m.) with a standard 4 RF21 diet (Mucedola). Blood samples were taken in post-absorption conditions (fasting from 8.30 a.m. to 4.30 p.m.) from the caudal vein with the aid of a Jelco 22G catheter (Johnson and Johnson). Glucose, insulin, triglyceride, cholesterol, free fatty acid and urea levels were checked in plasma for a homogeneous distribution of the mice in the treatment groups.
At the beginning of treatment the animals' body weight was checked and arrangements were made to monitor their water and feed consumption. […]
The compound tested, obtained as described in example 4 (ST 1929) was administered at the dose of 24 mg/kg in 10 ml/kg of vehicle (1% CMC containing Tween 80 0.5% in deionized H2O).
The other compounds tested were also administered at a dose equivalent to that in example 4.
Ciprofibrate, a known PPARα agonist (Varanasi et al., J Biol Chem 1996, 271: 2147-2155; Latruffe et al. Cell Biochem Biophys 2000, 32 Spring: 213-220) was administered at the dose of 20 mg/kg (Dwivedi et al., Toxicol Pathol 1989, 17: 16-26; Qi et al., Proc Natl Acad Sci USA 1999, 96: 1585-1590).
The animals were sacrificed (by decapitation) in conditions of post-absorption (fasting from 9.30 a.m. to 4.30 p.m.) 7 hours after the last treatment. The levels of a number of important lipid and carbohydrate metabolism parameters were determined in the serum.
The HDL-cholesterol levels were measured by treating the serum with phosphotungstic-acid-based precipitating reagent (ABX Diagnostics) which removes the chylomicrons, very low density and low density lipoproteins and determining the HDL-cholesterol levels in the supernatant with the aid of the Cholesterol Kit (ABX Diagnostics) and the Cobas Mira S Autoanalyzer (Roche).
In a further experiment, where the above reported ST2195 was used as reference compound, db/db mice were treated orally twice daily (8.30 a.m. and 6.30 p.m.) for 14 days with the test items (equimolar to 25 mg/kg of ST2 195) giving the following results reported in Table 3: […]

Row | SMILES | melting point [°C] | activation at 2 µM ([1]; 2 μM) [%] | activation at 20 µM ([1]; 20 μM) [%] | activation at 100 µM ([1]; 100 μM) [%] | other results
1 | COC(=O)C(C)(C)Sc1ccc(O)cc1 [ST1923, methyl 2-(4-hydroxyphenylthio)isobutyrate] | 110 to 112 |  |  |  | 
2 | CC(C)(Sc1ccc(OCCc2ccc(Cl)cc2)cc1)C(=O)O [ST 2505, 2-[4-[2-(4-chlorophenyl)ethoxy]phenylthio]-2-methylpropanoic acid] | 87 to 88 |  |  |  | 
3 | COC(=O)C(C)(C)Sc1ccc(OC(=O)Nc2ccc(C(F)(F)F)cc2)cc1 | 110 to 111 |  |  |  | 
4 | COC(=O)C(C)(C)Sc1ccc(OCCc2ccc(Cl)cc2)cc1 [ST1929] |  |  |  |  | Increase in HDL/cholesterol levels (%) ([2]; oral twice daily, 24 mg/kg, 10 days): +80 ▴ %
5 | CC(C)(Sc1ccc(O)cc1)C(=O)O [ST1981, 2-(4-hydroxyphenylthio)isobutyric acid] | 152 to 154 |  |  |  | 
6 | CC(C)(Oc1ccc(CCNC(=O)c2ccc(Cl)cc2)cc1)C(=O)O [Bezafibrate, reference compound] |  |  |  |  | Increase in HDL/cholesterol levels (%) ([2]; 24.8 mg/kg, 25 days): +14%
7 | COC(=O)C(C)(C)Sc1ccc(OCCc2ccc(Cl)cc2Cl)cc1 [ST2531, methyl 2-[4-(2-(2,4-dichloro-phenyl)ethoxy)phenylthio]isobutyrate] | 73 to 74 |  |  |  | 
8 | COc1ccc2c(ccn2CCOc2ccc(SC(C)(C)C(=O)O)cc2)c1 [ST2733, 2-[4-[2-(1-(5-methoxy)indolyl)ethoxy]phenyl-thio]isobutyric acid] |  | 77.2 | 193 | 239 | Increase in HDL/cholesterol levels (%) ([2]; second experiment, 26.4 mg/kg, 16 days): +70[…] %
9 | CC(C)(Oc1ccc(C2CC2(Cl)Cl)cc1)C(=O)O (stereo not shown) [Ciprofibrate, reference compound] |  |  |  |  | Increase in HDL/cholesterol levels (%) ([2]; oral twice daily, 20 mg/kg, 14 days): +52 ▴ %
10 | CC(C)(Sc1cccc(OCCc2ccc(Cl)cc2Cl)c1)C(=O)O [ST2653, 2-[3-(2-(2,4-dichlorophenyl)ethoxy)phenyl-thio]-2-isobutyric acid] |  | 132 | 199 | 204 | 
11 | COC(=O)C(C)(C)Sc1cccc(OCCc2ccc(Cl)cc2)c1 [ST2195, methyl 2-[3-[2-(4-chlorophenyl)ethoxy]phenyl-thio]isobutyrate] |  |  |  |  | Increase in HDL/cholesterol levels (%) ([2]; 25.0 mg/kg, 25 days): +20ρ %; Increase in HDL-cholesterol levels (%) [2]: +67Δ %
12 | COC(=O)C(C)(C)Sc1cccc(OC(=O)Nc2ccc(C(F)(F)F)cc2)c1 | 66 to 67 |  |  |  | 
13 | COC(=O)C(C)(C)Sc1cccc(OCCc2ccc(Cl)cc2Cl)c1 [ST2534, methyl 2-[3-(2-(2,4-dichloro-phenyl)ethoxy)phenylthio]isobutyrate] |  | 113 | 285 | 421 | Increase in HDL-cholesterol levels (%) [2]: +61Δ %
14 | COC(=O)C(C)(C)Sc1cccc(OCCc2ccc3ccccc3c2)c1 [ST2167, methyl 2-[3-[2-(2-naphthyl)ethoxy]phenyl-thio]isobutyrate] |  | 98.1 | 360 | 463 | Increase in HDL/cholesterol levels (%) ([2]; 26.1 mg/kg, 25 days): +29ρ %
15 | COC(=O)C(C)(C)Sc1ccc(OCCn2ccc3ccccc32)cc1 [ST1983] |  |  |  |  | Increase in HDL-cholesterol levels (%) [2]: +69Δ %; percentage activation of the CAT reporter gene compared to reference compound WY-14.643 2 μM taken as 100% ([1]; 2 μM): 150%; percentage activation of the CAT reporter gene compared to reference compound WY-14.643 2 μM taken as 100% ([1]; 20 μM): 391.2%; percentage activation of the CAT reporter gene compared to reference compound WY-14.643 2 μM taken as 100% ([1]; 100 μM): 1372%

Continued, in another order:

Row | melting point [°C] | activation at 2 µM ([1]; 2 μM) [%] | activation at 20 µM ([1]; 20 μM) [%] | activation at 100 µM ([1]; 100 μM) [%] | SMILES | other results
16 |  | 150 | 177 | 115 | CC(C)(Sc1ccc(OCCn2ccc3cc(OCc4ccccc4)ccc32)cc1)C(=O)O [ST2740, 2-[4-[2-(1-(5-benzyloxy)indolyl)ethoxy]phenyl-thio]isobutyric acid] | 
17 | 101 to 103 |  |  |  | COC(=O)C(C)(C)Sc1cccc(OCCn2c3ccccc3c3ccccc32)c1 [ST2365, methyl 2-[3-(2-(carbazol-9-yl)ethoxy)phenyl-thio]isobutyrate] | 
18 |  | 139 | 291 | 249 | COC(=O)C(C)(C)Sc1ccc(OCCn2ccc3cc(OCc4ccccc4)ccc32)cc1 [ST2562, methyl 2-[4-[2-(1-(5-benzyloxy)indolyl)ethoxy]phenyl-thio]isobutyrate] | 
19 | 72 to 74 |  |  |  | COC(=O)C(C)(C)Sc1ccc(OCCn2c3ccccc3c3ccccc32)cc1 [ST2387, methyl 2-[4-(2-(carbazol-9-yl)ethoxy)phenyl-thio]isobutyrate] | 
20 | 56 to 57 |  |  |  | COC(=O)C(C)(C)Sc1ccc(OCCc2ccc3ccccc3c2)cc1 [ST2011, methyl 2-[4-[2-(2-naphthyl)ethoxy]phenyl-thio]isobutyrate] | 
21 |  | 105 | 231 | 311 | CC(C)(Sc1ccc(OCCn2ccc3ccccc32)cc1)C(=O)O [ST2622, 2-[4-[2-(1-indolyl)ethoxy]phenyl-thio]-isobutyric acid] | Increase in HDL-cholesterol levels (%) [2]: +54Δ %
22 |  | 98.6 | 269 | 255 | COC(=O)C(C)(C)Sc1ccc(OCCn2ccc3cc(OC)ccc32)cc1 [ST2577, methyl 2-[4-[2-(1-(5-methoxy)indolyl)ethoxy]phenyl-thio]isobutyrate] | 
